# Literature values in US20150108064A1, “Production Of Channel Type Cyclodextrin Crystals” (Amphidex A/S, priority 2012, published 2015).
# Experiments:
# [1] = maximum safe concentration in the air, worker exposed daily
Solubility in H2O [g/100 g],Structure (SMILES),TLV [1] [ppm]
–,ClC(Cl)Cl [Chloroform],10
–,"C1CCOC1 [THF, Tetrahydrofuran]",200
–,CC(C)=O [Acetone],500
8.700,CCOC(C)=O [Ethyl acetate],400
–,CCO [Ethanol],1000
–,CCCCCCC [Heptane],400
–,CCCO [1-propanol],200
0.001,CCCCCC [Hexane],50
0.005,C1CCCCC1 [Cyclohexane],300

Structure (SMILES),Solubility in H2O [g/100 g],TLV [1] [ppm]
CCCCC [Pentane],0.004,–
